Source: PubChem BioAssay (NCI)
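A five-concentration, 48-hour dose response in 96-well plates underlies each endpoint, interpolated linearly between surrounding concentrations. GI50 marks 50% less growth. TGI: total growth inhibition.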

Columns and labels:
Assay in all cases: DTP human tumour cell line panel, 48 h
[1] = tested on: HL-60(TB) leukemia
[2] = tested on: SNB-19 CNS
[3] = tested on: ACHN renal
[4] = tested on: NCI-H226 lung
[5] = tested on: EKVX NSCLC
[6] = tested on: KM12 colon
[7] = tested on: HCC-2998 colon
[8] = tested on: COLO 205 colon
[9] = tested on: LOX IMVI melanoma
[10] = tested on: SR leukemia
[11] = tested on: SK-MEL-5 melanoma
[12] = tested on: K-562 leukemia
[13] = tested on: SK-OV-3 ovarian
[14] = tested on: BT-549 breast
[15] = tested on: MOLT-4 leukemia
[16] = tested on: RXF 393 renal
[17] = tested on: CAKI-1 renal
[18] = tested on: SF-539 CNS
[19] = tested on: HCT-116 colon
[20] = tested on: MDA-MB-468 breast
[21] = tested on: M14 melanoma
[22] = tested on: NCI/ADR-RES ovarian
[23] = tested on: NCI-H460 lung
[24] = tested on: HCT-15 colon
[25] = tested on: RPMI-8226 leukemia
[26] = tested on: HOP-62 NSCLC
[27] = tested on: U251 CNS
[28] = tested on: SF-295 CNS
[29] = tested on: PC-3 prostate
[30] = tested on: SF-268 CNS
[31] = tested on: OVCAR-8 ovarian
[32] = tested on: 786-0 renal
[33] = tested on: NCI-H522 lung
[34] = tested on: HOP-92 NSCLC
[35] = tested on: IGROV1 ovarian
[36] = tested on: SN12C renal
[37] = tested on: MDA-MB-435
[38] = tested on: SK-MEL-28 melanoma
[39] = tested on: DU-145 prostate
[40] = tested on: OVCAR-5 ovarian
[41] = tested on: TK-10 renal
[42] = tested on: UACC-62 melanoma
[43] = tested on: T-47D breast
[44] = tested on: NCI-H23 lung
[45] = tested on: OVCAR-3 ovarian
[46] = tested on: SW-620 colon
[47] = tested on: MCF7 breast
[48] = tested on: A498 renal
[49] = tested on: HS 578T breast
[50] = tested on: A549 NSCLC
[51] = tested on: HT29 colon
[52] = tested on: MALME-3M melanoma
[53] = tested on: OVCAR-4 ovarian
[54] = tested on: CCRF-CEM leukemia

CC(C)C[C@H](NC(=O)CNC(=O)C[C@H]1O[C@@H]2OC3(C)CC[C@H]4[C@H](C)CC[C@@H]([C@H]1C)[C@@]24O3)B(O)O
GI50 [1]: 0.514 µM | TGI [1]: 4.15 µM | GI50 [2]: 5.83 µM | TGI [2]: > 100 µM | GI50 [3]: 3.99 µM | TGI [3]: > 100 µM | GI50 [4]: 0.645 µM | TGI [4]: 2.14 µM | GI50 [5]: 7.94 µM | TGI [5]: 79.6 µM | GI50 [6]: 2.71 µM | TGI [6]: 7.32 µM | GI50 [7]: 1.92 µM | TGI [7]: 3.46 µM | GI50 [8]: 4.79 µM | TGI [8]: 22.2 µM | GI50 [9]: 1.44 µM | TGI [9]: 3.14 µM | GI50 [10]: 0.303 µM | TGI [10]: 1.5 µM | GI50 [11]: 1.79 µM | TGI [11]: 3.67 µM | GI50 [12]: 3.69 µM | TGI [12]: > 100 µM | GI50 [13]: 6.45 µM | TGI [13]: 35.2 µM | GI50 [14]: 0.537 µM | TGI [14]: 2.45 µM | GI50 [15]: 0.332 µM | TGI [15]: 1.92 µM | GI50 [16]: 0.738 µM | TGI [16]: 2.18 µM | GI50 [17]: 16.8 µM | TGI [17]: > 100 µM | GI50 [18]: 1.32 µM | TGI [18]: 3.08 µM | GI50 [19]: 1.46 µM | TGI [19]: 3.7 µM | GI50 [20]: 1.43 µM | TGI [20]: 3.57 µM | GI50 [21]: 1.91 µM | TGI [21]: 4.82 µM | GI50 [22]: 40.6 µM | TGI [22]: > 100 µM | GI50 [23]: 4.72 µM | TGI [23]: 23 µM | GI50 [24]: 6.42 µM | TGI [24]: 24.1 µM | GI50 [25]: 0.272 µM | TGI [25]: 1.38 µM | GI50 [26]: 3.89 µM | TGI [26]: 18.4 µM | GI50 [27]: 3.61 µM | TGI [27]: 17.6 µM | GI50 [28]: 2.45 µM | TGI [28]: 11.3 µM | GI50 [29]: 5.47 µM | TGI [29]: 67 µM | GI50 [30]: 3.51 µM | TGI [30]: 97.5 µM | GI50 [31]: 3.58 µM | TGI [31]: 17.6 µM | GI50 [32]: 4.22 µM | TGI [32]: 53.6 µM | GI50 [33]: 1.63 µM | TGI [33]: 3.3 µM | GI50 [34]: 3.12 µM | TGI [34]: 9.51 µM | GI50 [35]: 6.94 µM | TGI [35]: 34.4 µM | GI50 [36]: 2.98 µM | TGI [36]: 12 µM | GI50 [37]: 1.38 µM | TGI [37]: 3.93 µM | GI50 [38]: 1.45 µM | TGI [38]: 7.28 µM | GI50 [39]: 13.5 µM | TGI [39]: > 100 µM | GI50 [40]: 2.53 µM | TGI [40]: 13.8 µM | GI50 [41]: 3.01 µM | TGI [41]: 20.1 µM | GI50 [42]: 1.92 µM | TGI [42]: 4.61 µM | GI50 [43]: 2.19 µM | TGI [43]: 5.88 µM | GI50 [44]: 3.1 µM | TGI [44]: 11.8 µM | GI50 [45]: 1.78 µM | TGI [45]: 4.27 µM | GI50 [46]: 2.78 µM | TGI [46]: 17.8 µM | GI50 [47]: 1.36 µM | TGI [47]: 41 µM | GI50 [48]: 6.87 µM | TGI [48]: 49 µM | GI50 [49]: 3.5 µM | TGI [49]: 70.6 µM | GI50 [50]: 3.93 µM | TGI [50]: > 100 µM | GI50 [51]: 1.67 µM | TGI [51]: 4.63 µM | GI50 [52]: 1.22 µM | TGI [52]: 4.4 µM | GI50 [53]: 5.64 µM | TGI [53]: > 100 µM | GI50 [54]: 0.502 µM | TGI [54]: 3.88 µM

C[n+]1c2ccccc2nc2c(N)cc(N)cc21
GI50 [20]: 1.18 µM | TGI [20]: 4.98 µM

COc1cc(/C=C/c2ccc3c(Br)cc(Br)c(O)c3n2)ccc1O
GI50 [20]: 1.38 µM | TGI [20]: 5.29 µM
